Assay results as given in ChEMBL document CHEMBL1201862, “PubChem BioAssay data set” (2004).
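Method: 48-hour compound exposure of cells in 96-well plates, five concentrations, linear interpolation of endpoints. At the GI50, growth is halved.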 Active and inactive are the calls of the source. Rule as the data show it: active = GI50 up to about 1.1 µM and inactive = higher.

Assays:
Test in all cases: DTP human tumour cell line panel, 48 h
[1] = tested on: OVCAR-4
[2] = tested on: CAKI-1
[3] = tested on: COLO 205
[4] = tested on: KM-20L2
[5] = tested on: U-251
[6] = tested on: RXF 393
[7] = tested on: HT-29
[8] = tested on: NCI-H522
[9] = tested on: UACC-62
[10] = tested on: EKVX
[11] = tested on: DLD-1
[12] = tested on: A549
[13] = tested on: SF-295
[14] = tested on: K562
[15] = tested on: SNB-19
[16] = tested on: UO-31
[17] = tested on: HCT-15
[18] = tested on: HOP-92
[19] = tested on: NCI-H23
[20] = tested on: M14

| Compound | GI50 [1] | GI50 [2] | GI50 [3] | GI50 [4] | GI50 [5] | GI50 [6] | GI50 [7] | GI50 [8] | GI50 [9] | GI50 [10] | GI50 [11] | GI50 [12] | GI50 [13] | GI50 [14] | GI50 [15] | GI50 [16] | GI50 [17] [µM] | GI50 [18] | GI50 [19] | GI50 [20] |
| --- | --- | --- | --- | --- | --- | --- | --- | --- | --- | --- | --- | --- | --- | --- | --- | --- | --- | --- | --- | --- |
| CCOC(=O)CNC(=O)N(CC)C12CC3CC(CC(C3)C1)C2 | 188 µM (inactive) | 147 µM (inactive) | 110 µM (inactive) | 117 µM (inactive) | 119 µM (inactive) | 152 µM (inactive) | 132 µM (inactive) | 123 µM (inactive) | 97.5 µM (inactive) | 157 µM (inactive) | 34.7 µM (inactive) | 166 µM (inactive) | 136 µM (inactive) | 122 µM (inactive) | 153 µM (inactive) | 149 µM (inactive) | 115 | 60.1 µM (inactive) | 159 µM (inactive) |  |
| O=C1c2cccc3cc4ccccc4c(c23)C(=O)N1CCNCCN1C(=O)c2cccc3cc4ccccc4c(c23)C1=O | 0.625 µM (active) | 0.245 µM (active) | 0.731 µM (active) | 0.518 µM (active) | 0.282 µM (active) | 0.525 µM (active) | 0.351 µM (active) | 1.53 µM (inactive) | 0.318 µM (active) | 0.587 µM (active) | 0.714 µM (active) | 0.186 µM (active) | 0.243 µM (active) | 0.301 µM (active) | 0.39 µM (active) | 0.277 µM (active) | 0.309 | 0.449 µM (active) | 0.364 µM (active) |  |
| O=C(O)c1cccc2cccc(-c3c4ccc(=O)cc-4oc4cc(O)ccc34)c12 | > 100 µM (inactive) | > 100 µM (inactive) | 98.6 µM (inactive) |  | > 100 µM (inactive) | > 100 µM (inactive) | > 100 µM (inactive) | > 100 µM (inactive) | > 100 µM (inactive) | > 100 µM (inactive) |  | > 100 µM (inactive) | 34.8 µM (inactive) | 31 µM (inactive) | > 100 µM (inactive) | > 100 µM (inactive) | > 100 |  | > 100 µM (inactive) | > 100 µM (inactive) |
| O=C1Nc2ccc(S(=O)(=O)N(CCO)CCO)cc2/C1=C1/Nc2ccccc2C1=O | 48 µM (inactive) | > 100 µM (inactive) | 8.05 µM (inactive) |  | 96.6 µM (inactive) | 1.56 µM (inactive) | > 100 µM (inactive) | > 100 µM (inactive) | > 100 µM (inactive) | > 100 µM (inactive) |  | > 100 µM (inactive) | > 100 µM (inactive) | > 100 µM (inactive) | > 100 µM (inactive) | > 100 µM (inactive) | > 100 | > 100 µM (inactive) | > 100 µM (inactive) | > 100 µM (inactive) |
| CC1OC(OC2C(OC(=O)[C@@H]3CC(C)(C)C[C@H]4C5=CC[C@@H]6[C@@]7(C)C[C@H](O)[C@H](OC8OC(CO)C(O)C(O)C8O)[C@@](C)(CO)[C@@H]7[C@H](O)C[C@@]6(C)[C@]5(C)CC[C@@]34C)OCC(O)C2O)C(O)C(O)C1O (stereo partly specified) | > 7.5 µM (inactive) | > 7.5 µM (inactive) | > 7.5 µM (inactive) |  | > 7.5 µM (inactive) | > 7.5 µM (inactive) | > 7.5 µM (inactive) | > 7.5 µM (inactive) | > 7.5 µM (inactive) | > 7.5 µM (inactive) |  |  | > 7.5 µM (inactive) | > 7.5 µM (inactive) | > 7.5 µM (inactive) | > 7.5 µM (inactive) | > 7.5 | > 7.5 µM (inactive) | > 7.5 µM (inactive) | > 7.5 µM (inactive) |
| CSc1sc(=S)sc1SC | > 100 µM (inactive) | 1 µM (active) | > 100 µM (inactive) | > 100 µM (inactive) | > 100 µM (inactive) | > 100 µM (inactive) | > 100 µM (inactive) | > 100 µM (inactive) | > 100 µM (inactive) | > 100 µM (inactive) | > 100 µM (inactive) | > 100 µM (inactive) | > 100 µM (inactive) | > 100 µM (inactive) | > 100 µM (inactive) | > 100 µM (inactive) | > 100 | > 100 µM (inactive) | > 100 µM (inactive) |  |
| C=C1C(=O)OC2CC(C)C3C4OC4C(O)C3(C)C(O)C12 (stereo unspecified) | 26.5 µM (inactive) | 22.8 µM (inactive) | 16.3 µM (inactive) | 14.1 µM (inactive) | 43.2 µM (inactive) | 22.1 µM (inactive) | 27.5 µM (inactive) | 9.42 µM (inactive) | 12.6 µM (inactive) | 20 µM (inactive) | 27.3 µM (inactive) | 53.5 µM (inactive) | 41 µM (inactive) | 20.6 µM (inactive) | 44.7 µM (inactive) | 80.2 µM (inactive) | 22.8 | 23.6 µM (inactive) | 14.4 µM (inactive) |  |
| O=C1c2ccccc2C(=O)c2c1ccc1c2N=C(c2ccc(F)cc2)CC(c2ccc(Cl)c(Cl)c2)N1 (stereo unspecified) | 19 µM (inactive) | 3.27 µM (inactive) | 18.1 µM (inactive) | 15.7 µM (inactive) | 12.1 µM (inactive) |  | 13.5 µM (inactive) | 7.29 µM (inactive) | 12.1 µM (inactive) | 3.96 µM (inactive) | 12.9 µM (inactive) | 18.4 µM (inactive) | 14.6 µM (inactive) | 7.16 µM (inactive) | 13.1 µM (inactive) | 10.8 µM (inactive) | 5.81 | 22.7 µM (inactive) | 16.6 µM (inactive) | 18.2 µM (inactive) |
| NC(=O)Nc1cc(O)ccc1/N=N/c1ccc(S(=O)(=O)Nc2ccccn2)cc1 | > 100 µM (inactive) | > 100 µM (inactive) | > 100 µM (inactive) | > 100 µM (inactive) | > 100 µM (inactive) |  | > 100 µM (inactive) | > 100 µM (inactive) | > 100 µM (inactive) | > 100 µM (inactive) |  | > 100 µM (inactive) | > 100 µM (inactive) | > 100 µM (inactive) | > 100 µM (inactive) | > 100 µM (inactive) | > 100 | > 100 µM (inactive) | > 100 µM (inactive) | > 100 µM (inactive) |
| CCC1OC(=O)C(C)C(OC2CC(C)(O)C(O)C(C)O2)C(C)C(O)C(C)(O)CC(C)C(=O)C(C)C(O)C1C (stereo unspecified) | > 300 µM (inactive) | > 300 µM (inactive) | > 300 µM (inactive) | > 300 µM (inactive) | > 300 µM (inactive) | > 300 µM (inactive) | > 300 µM (inactive) | > 300 µM (inactive) | > 300 µM (inactive) | > 300 µM (inactive) | > 300 µM (inactive) | > 300 µM (inactive) | > 300 µM (inactive) | > 300 µM (inactive) | > 300 µM (inactive) | > 300 µM (inactive) | > 300 | 30 µM (inactive) | > 300 µM (inactive) |  |
| COc1ccc(/C=C2\Oc3cc(OC(C)=O)ccc3C2=O)cc1 | > 100 µM (inactive) | 21.1 µM (inactive) | > 100 µM (inactive) |  | > 100 µM (inactive) | > 100 µM (inactive) |  | 19 µM (inactive) | > 100 µM (inactive) | > 100 µM (inactive) |  | > 100 µM (inactive) | > 100 µM (inactive) | 78.2 µM (inactive) | > 100 µM (inactive) | > 100 µM (inactive) | 94.4 |  | > 100 µM (inactive) | > 100 µM (inactive) |
| COC(=O)C1=CC[C@@H]2C(C(=O)O)=CO[C@@H](OC3OC(CO)C(O)C(O)C3O)[C@H]12 (stereo partly specified) | > 300 µM (inactive) | > 300 µM (inactive) | > 300 µM (inactive) | > 300 µM (inactive) | > 300 µM (inactive) | > 300 µM (inactive) | > 300 µM (inactive) | > 300 µM (inactive) | > 300 µM (inactive) | > 300 µM (inactive) | > 189 µM (inactive) | > 300 µM (inactive) | > 150 µM (inactive) | > 300 µM (inactive) | > 300 µM (inactive) | > 300 µM (inactive) | > 300 | > 110 µM (inactive) | > 300 µM (inactive) |  |
| Cc1cc(NS(=O)(=O)c2ccc(Nc3c4ccccc4nc4c(C(=O)N5CCN(CCO)CC5)ccc(Cl)c34)cc2)no1 | > 100 µM (inactive) | > 100 µM (inactive) | > 100 µM (inactive) | > 100 µM (inactive) | > 100 µM (inactive) | > 100 µM (inactive) | > 100 µM (inactive) |  | 42.5 µM (inactive) |  | 52.5 µM (inactive) | > 100 µM (inactive) | > 100 µM (inactive) | 48.4 µM (inactive) | > 100 µM (inactive) | > 100 µM (inactive) | > 100 | > 100 µM (inactive) | > 100 µM (inactive) | > 100 µM (inactive) |
| COc1cc(OC)c(SSCCCCS(=O)O)c(OC)c1 | 14.3 µM (inactive) | > 10 µM (inactive) | 17.5 µM (inactive) | 18.7 µM (inactive) | 14.5 µM (inactive) | 14.5 µM (inactive) | 16.4 µM (inactive) | 6.65 µM (inactive) | 13.7 µM (inactive) | 13.7 µM (inactive) | 17.5 µM (inactive) | 19 µM (inactive) | 13.6 µM (inactive) | 17.4 µM (inactive) | 17.5 µM (inactive) | 18.3 µM (inactive) | 16.6 |  | 15.4 µM (inactive) | 14.3 µM (inactive) |
| O=C1/C(=C/c2ccc(Cl)cc2)CNC/C1=C\c1ccc(Cl)cc1 |  | 1.58 µM (inactive) | 2.14 µM (inactive) |  | 0.782 µM (active) |  |  | 1.92 µM (inactive) | 2.43 µM (inactive) |  |  | 4.76 µM (inactive) |  |  | 1.82 µM (inactive) |  | 1.16 |  | 1.89 µM (inactive) | 3.71 µM (inactive) |
